Legend:
[1] = test system: accumulation of dulcitol; assay: Lowering of dulcitol accumulation in lens, sciatic nerve and diaphragm of galactosemic rats (in vivo); set-up: species or system rat (Sprague-Dawley, male); conditions: for % lowering dulcitol accumulation in vivo, D: diaphragm
From the text: Such experiments are exemplified hereinbelow after the listing of the following general comments pertaining to these experiments:
(a) Four or more groups of six male rats, 50-70 g, Sprague-Dawley strain, were used. The first group, the control group, was fed a mixture of laboratory chow (rodent Laboratory Chow, Purina) and glucose at 20% (w/w %) concentration. The untreated galactosemic group was fed a similar diet in which galactose is substituted for glucose. The third group was fed a diet prepared by mixing a given amount of the test compound with the galactose containing diet. The concentration of galactose in the diet of the treated groups was the same as that for the untreated galactosemic group.
(b) After four days, the animals were killed by decapitation. The eyeballs were removed and punctured with a razor blade; the freed lenses were rolled gently on filter paper and weighed. The sciatic nerves were dissected as completely as possible and weighed. Both tissues when frozen can be kept up to two weeks before being analyzed for dulcitol.
(c) The polyol determination was performed by a modification of the procedure of M. Kraml and L. Cosyns, Clin. Biochem., 2,373 (1969). Only two minor reagent changes were made: (a) The rinsing mixture was an aqueous 5% (w/v) trichloroacetic acid solution and (b) the stock solution was prepared by dissolving 25 mg of dulcitol in 100 ml of an aqueous trichloroacetic acid solution. [N.B.: For each experiment the average value found in the tissue from rats fed the glucose diet was subtracted from the individual values found in the corresponding tissue in galactose-fed rats to obtain the amount of polyol accumulated.] […] In the present case the procedure of Hayman and Kinoshita was modified in that the final chromatography step was omitted in the preparation of the enzyme from bovine lens.
The figures under L, N and D represent the percentage decrease of dulcitol accumulation in the tissues of the lens, sciatic nerve and diaphragm, respectively, for treated rats as compared to untreated rats.

[2] = test system: aldose reductase; conditions: literature, in words; cited from earlier work

Structure (SMILES): COc1ccc2c(C(=S)N(C)CC(=O)N(C)C)cccc2c1C(F)(F)F [Compound 3, 2-[[[6-Methoxy-5-(trifluoromethyl)-1-naphthalenyl]thioxomethyl]methylamino]-N,N-dimethylacetamide]
- % lowering dulcitol accumulation in vivo, D ([1]; 55 mg/kg/day in diet, 4 days): 85%

Structure (SMILES): COc1ccc2c(C(=S)N(C)CC(N)=O)cccc2c1C(F)(F)F [Compound 1, N-[[5-(trifluoromethyl)-6-methoxy-1-naphthalenyl]-thioxomethyl]-N-methylglycinamide]
- % lowering dulcitol accumulation in vivo, D ([1]; 5 mg/kg/day in diet, 4 days): 66%
- results compared with N-[[5-(trifluoromethyl)-6-methoxy-1-naphthalenyl]-thioxomethyl]-N-methylglycine (tolrestat) ([1]; dose of 5 mg/kg/day, in words): comparable results

Structure (SMILES): O=C1NC(=O)[C@@]2(CCOc3ccc(F)cc32)N1 [sorbinil, (S)-6-Fluoro-2,3-dihydrospiro(4H-1-benzopyran-4,4'-imidazolidine)-2',5'-dione]
- inhibition of aldose reductase, as reported [2]: aldose reductase inhibiting properties

Structure (SMILES): COC(=N)NC(=O)CN(C)C(=S)c1cccc2c(C(F)(F)F)c(OC)ccc12 [Compound 4, N-[[[[5-(Trifluoromethyl)-6-methoxy-1-naphthalenyl]thioxomethyl]methylamino]acetyl]carbamimidic Acid, Methyl Ester]
- % lowering dulcitol accumulation in vivo, D ([1]; 26 mg/kg/day in diet, 4 days): 76%
- % lowering dulcitol accumulation in vivo, L ([1]; lens, 26 mg/kg/day in diet, 4 days): 13%

Structure (SMILES): COc1ccc2c(C(=S)N(C)CC(=O)N[C@H]3C(O)O[C@H](CO)[C@@H](O)[C@@H]3O)cccc2c1C(F)(F)F (stereo partly drawn) [Compound 7, 2-Deoxy-2-[[[[[6-methoxy-5-(trifluoromethyl)-1-naphthalenyl]thioxomethyl]methylamino]acetyl]amino]-D-glucose]
- % lowering dulcitol accumulation in vivo, D ([1]; 161 mg/kg/day in diet, 4 days): 37%

Structure (SMILES): COc1ccc2c(C(=S)N(C)CC(=O)NC(N)=O)cccc2c1C(F)(F)F [Compound 5, [[[5-(Trifluoromethyl)-6-methoxy-1-naphthalenyl]thioxomethyl](methylamino)acetyl]urea]
- % lowering dulcitol accumulation in vivo, D ([1]; 23 mg/kg/day in diet, 4 days): 64%

Structure (SMILES): O=C(O)CN1C(=O)c2cccc3cccc(c23)C1=O [1,3-Dioxo-1H-benz[de]isoquinoline-2(3H)-acetic acid]
- inhibition of aldose reductase, as reported [2]: effective inhibitor of aldose reductase

Structure (SMILES): COC(=O)NC(=O)CN(C)C(=S)c1cccc2c(C(F)(F)F)c(OC)ccc12 [Compound 6, [[[5-(Trifluoromethyl)-6-methoxy-1-naphthalenyl]thioxomethyl](methylamino)acetyl]carbamic acid, Methyl Ester]
- % lowering dulcitol accumulation in vivo, D ([1]; 8.4 mg/kg/day in diet, 4 days): 69%
- % lowering dulcitol accumulation in vivo, D ([1]; 26 mg/kg/day in diet, 4 days): 88%
